In US20210323981A1, “FREE AMINO COMPOUNDS FOR THE TREATMENT AND PROPHYLAXIS OF BACTERIAL INFECTION” (Hoffmann-La Roche Inc., priority 2018, published 2021):

Columns and labels:
Format in all cases: cell-based
[1] = tested on: K. pneumoniae (ATCC10031); assay: 50% growth inhibitory concentration (IC50) determination assay, K. pneumoniae; settings: Klebsiella pneumoniae, growth inhibition, Iso-Sensitest broth, OD 600 nm over 16 h, <0.098 μM = detection limit
Procedure: (§1) The in vitro antimicrobial activity of the compounds against S. aureus (ATCC29213), K. pneumoniae (ATCC10031), and A. baumannii (ATCC17978), was determined according to the following procedure: The assay used a 10-points Iso-Sensitest broth medium to measure quantitatively the in vitro activity of the compounds against S. aureus ATCC29213, K. pneumoniae ATCC 10031, and A. baumannii ATCC17978. Stock compounds in DMSO were serially two-fold diluted (range from 50 to 0.097 μM final concentration) in 384 wells microtiter plates and inoculated with 49 μL the bacterial suspension in Iso-Sensitest broth medium to have a final cell concentration of ˜5×10^5 CFU/mL in a final volume/well of 50 μL/well. Microtiter plates were incubated at 35±2° C. Bacterial cell growth was determined with the measurement of optical density at k=600 nm each 20 minutes over a time course of 16 h. Growth inhibition was calculated during the logarithmic growth of the bacterial cells with determination of the concentration inhibiting 50% (IC50) of the growth.

[2] = tested on: S. aureus (ATCC29213); assay: 50% growth inhibitory concentration (IC50) determination assay, S. aureus; settings: Staphylococcus aureus, growth inhibition, Iso-Sensitest broth, OD 600 nm over 16 h, <0.098 μM = detection limit
Procedure: as §1

[3] = tested on: A. baumannii (ATCC17978); assay: 50% growth inhibitory concentration (IC50) determination assay, A. baumannii; settings: Acinetobacter baumannii, growth inhibition, Iso-Sensitest broth, OD 600 nm over 16 h, <0.098 = detection limit
Procedure: as §1

SMILES	IC50 [1] [µM]	IC50 [2] [µM]	IC50 [3] [µM]
CNc1cc(F)c(F)c2c1[nH]c1ncc(-c3cnc4c(c3)c(=O)c(C(=O)O)cn4C)c(N3CCC4(C[C@@H]4N)C3)c12 (mixture of isomers) [Example 2.01, Trans-6-[4-(2-amino-5-azaspiro[2.4]heptan-5-yl)-5,6-difluoro-8-(methylamino)-9H-pyrido[2,3-b]indol-3-yl]-1-methyl-4-oxo-1,8-naphthyridine-3-carboxylic acid]	< 0.098	< 0.098	0.155
CNc1cc(F)c(F)c2c1[nH]c1ncc(-c3cnc4c(c3)c(=O)c(C(=O)O)cn4C)c(N3CCC4(C[C@H]4N)C3)c12 (mixture of isomers) [Example 2.02, Cis-6-[4-(2-amino-5-azaspiro[2.4]heptan-5-yl)-5,6-difluoro-8-(methylamino)-9H-pyrido[2,3-b]indol-3-yl]-1-methyl-4-oxo-1,8-naphthyridine-3-carboxylic acid]	< 0.098	< 0.098	0.261
CNc1cc(F)c(F)c2c1[nH]c1ncc(-c3cnc4c(c3)c(=O)c(C(=O)O)cn4C)c(N3CC[C@H]4CN(CCCN)C[C@H]43)c12 (relative stereo) [Example 1.07, cis-6-[5,6-Difluoro-8-(methylamino)-4-[5-(3-aminopropyl)-2,3,3a,4,6,6a-hexahydropyrrolo[2,3-c]pyrrol-1-yl]-9H-pyrido[2,3-b]indol-3-yl]-1-methyl-4-oxo-1,8-naphthyridine-3-carboxylic acid]	0.429	1.67	4.79
CNc1cc(F)c(C#N)c2c1[nH]c1ncc(-c3cnc4c(c3)c(=O)c(C(=O)O)cn4C)c(N3C[C@H]4CC[C@@H](N)[C@H]4C3)c12 (relative stereo) [Example 1.13, 6-[5-Cyano-6-fluoro-8-(methylamino)-4-[rel-(3aR,4R,6aS)-4-amino-3,3a,4,5,6,6a-hexahydro-1H-cyclopenta[c]pyrrol-2-yl]-9H-pyrido[2,3-b]indol-3-yl]-1-methyl-4-oxo-1,8-naphthyridine-3-carboxylic acid]	0.128	0.151	2.79
CNc1cc(F)c(F)c2c1[nH]c1ncc(-c3cnc4c(c3)c(=O)c(C(=O)O)cn4C)c(N3C[C@H]4CCC[C@@]4(N)C3)c12 (stereo in doubt) [Example 1.12, trans-6-(5,6-Difluoro-8-(methylamino)-4-[3a-amino-1,3,4,5,6,6a-hexahydrocyclopenta[c]pyrrol-2-yl]-9H-pyrido[2,3-b]indol-3-yl)-1-methyl-4-oxo-1,8-naphthyridine-3-carboxylic acid]	< 0.098	0.448	0.889
CNc1cc(F)c(F)c2c1[nH]c1ncc(-c3cnc4c(c3)c(=O)c(C(=O)O)cn4C)c(N3CC4(CCC4N)C3)c12 (centres unmarked) [Example 1.02, 6-[4-(7-Amino-2-azaspiro[3.3]heptan-2-yl)-5,6-difluoro-8-(methylamino)-9H-pyrido[2,3-b]indol-3-yl]-1-methyl-4-oxo-1,8-naphthyridine-3-carboxylic acid]	< 0.098	3.89	2.86
CCn1cc(C(=O)O)c(=O)c2cc(-c3cnc4[nH]c5c(NC)cc(F)c(F)c5c4c3N3CCC(N)C3)cnc21 (centres unmarked) [Example 1.03, 6-[4-(3-Aminopyrrolidin-1-yl)-5,6-difluoro-8-(methylamino)-9H-pyrido[2,3-b]indol-3-yl]-1-ethyl-4-oxo-1,8-naphthyridine-3-carboxylic acid]	< 0.098	0.944	1.49
CCn1cc(C(=O)O)c(=O)c2cc(-c3cnc4[nH]c5c(NC)cc(F)c(F)c5c4c3N3CCC(CN)C3)cnc21 (centres unmarked) [Example 1.04, 6-(4-(3-(Aminomethyl)pyrrolidin-1-yl)-5,6-difluoro-8-(methylamino)-9H-pyrido[2,3-b]indol-3-yl)-1-ethyl-4-oxo-1,4-dihydro-1,8-naphthyridine-3-carboxylic acid]	0.11	0.572	1.33
CNc1cc(F)c(F)c2c1[nH]c1ncc(-c3cnc4c(c3)c(=O)c(C(=O)O)cn4C)c(N3CCC(N)(C(F)(F)F)C3)c12 (centres unmarked) [Example 1.05, 6-(4-(3-Amino-3-(trifluoromethyl)pyrrolidin-1-yl)-5,6-difluoro-8-(methylamino)-9H-pyrido[2,3-b]indol-3-yl)-1-methyl-4-oxo-1,4-dihydro-1,8-naphthyridine-3-carboxylic acid]		< 0.098	
CNc1cc(F)c(F)c2c1[nH]c1ncc(-c3cnc4c(c3)c(=O)c(C(=O)O)cn4C)c(N3CC4CC4(CN)C3)c12 (centres unmarked) [Example 1.06, 6-[4-[1-(Aminomethyl)-3-azabicyclo[3.1.0]hexan-3-yl]-5,6-difluoro-8-(methylamino)-9H-pyrido[2,3-b]indol-3-yl]-1-methyl-4-oxo-1,8-naphthyridine-3-carboxylic acid]	< 0.098	0.342	2.48
CNc1cc(F)c(F)c2c1[nH]c1ncc(-c3cnc4c(c3)c(=O)c(C(=O)O)cn4C)c(N3C[C@@H]4[C@@H](N)[C@@H]4C3)c12 [Example 1.08, 6-[5,6-Difluoro-8-(methylamino)-4-[rel-(1S,5R)-6-amino-3-azabicyclo[3.1.0]hexan-3-yl]-9H-pyrido[2,3-b]indol-3-yl]-1-methyl-4-oxo-1,8-naphthyridine-3-carboxylic acid]	< 0.098	0.314	0.654
CNc1cc(F)c(F)c2c1[nH]c1ncc(-c3cnc4c(c3)c(=O)c(C(=O)O)cn4C)c(N3CCCC3CN)c12 (centres unmarked) [Example 1.09, 6-[4-[2-(Aminomethyl)pyrrolidin-1-yl]-5,6-difluoro-8-(methylamino)-9H-pyrido[2,3-b]indol-3-yl]-1-methyl-4-oxo-1,8-naphthyridine-3-carboxylic acid]	0.25	0.513	3.72
CNc1cc(F)c(F)c2c1[nH]c1ncc(-c3cnc4c(c3)c(=O)c(C(=O)O)cn4C)c(N3CCC(CN)C3)c12 (centres unmarked) [Example 1.11, 6-[4-[3-(Aminomethyl)pyrrolidin-1-yl]-5,6-difluoro-8-(methylamino)-9H-pyrido[2,3-b]indol-3-yl]-1-methyl-4-oxo-1,8-naphthyridine-3-carboxylic acid]	< 0.098	0.294	3.62
CNc1cc(F)c(F)c2c1[nH]c1ncc(-c3cnc4c(c3)c(=O)c(C(=O)O)cn4C)c(N3CCC(F)(CN)C3)c12 (centres unmarked) [Example 1.16, 6-[4-[3-(Aminomethyl)-3-fluoro-pyrrolidin-1-yl]-5,6-difluoro-8-(methylamino)-9H-pyrido[2,3-b]indol-3-yl]-1-methyl-4-oxo-1,8-naphthyridine-3-carboxylic acid]	< 0.098	< 0.098	
CNc1cc(F)c(F)c2c1[nH]c1ncc(-c3cnc4c(c3)c(=O)c(C(=O)O)cn4C)c(N3CCC[C@@]4(C[C@H]4N)C3)c12 [Example 6.01, 6-[4-[(2R,3R)-2-Amino-5-azaspiro[2.5]octan-5-yl]-5,6-difluoro-8-(methylamino)-9H-pyrido[2,3-b]indol-3-yl]-1-methyl-4-oxo-1,8-naphthyridine-3-carboxylic acid]		< 0.098	
CNc1cc(F)c(F)c2c1[nH]c1ncc(-c3cnc4c(c3)c(=O)c(C(=O)O)cn4C)c(N3CCC[C@]4(C[C@@H]4N)C3)c12 [Example 6.02, 6-[4-[(2S,3S)-2-amino-5-azaspiro[2.5]octan-5-yl]-5,6-difluoro-8-(methylamino)-9H-pyrido[2,3-b]indol-3-yl]-1-methyl-4-oxo-1,8-naphthyridine-3-carboxylic acid]		< 0.098	
